Measurements published in ChEMBL document CHEMBL1201862, “PubChem BioAssay data set” (2004).
Active and inactive are the calls of the source.

Legend:
Protein S100-A4 = Protein S100-A4 (Homo sapiens, UniProt P26447); experiment: S100A4-myosin IIA binding inhibitor potency, dose response, biochemical, fluorescence polarization, cherry-picked hits (AID 687001); assay type: functional
[1] = target: Broad substrate specificity ATP-binding cassette transporter ABCG2 (Homo sapiens, UniProt Q9UNQ0); experiment: ABCG2 efflux pump inhibitors, dose response, Ig-MXP3 cells, flow cytometry (AID 1690); assay type: functional
Broad substrate specificity ATP-binding cassette transporter ABCG2, sequence (Q9UNQ0 whole entry): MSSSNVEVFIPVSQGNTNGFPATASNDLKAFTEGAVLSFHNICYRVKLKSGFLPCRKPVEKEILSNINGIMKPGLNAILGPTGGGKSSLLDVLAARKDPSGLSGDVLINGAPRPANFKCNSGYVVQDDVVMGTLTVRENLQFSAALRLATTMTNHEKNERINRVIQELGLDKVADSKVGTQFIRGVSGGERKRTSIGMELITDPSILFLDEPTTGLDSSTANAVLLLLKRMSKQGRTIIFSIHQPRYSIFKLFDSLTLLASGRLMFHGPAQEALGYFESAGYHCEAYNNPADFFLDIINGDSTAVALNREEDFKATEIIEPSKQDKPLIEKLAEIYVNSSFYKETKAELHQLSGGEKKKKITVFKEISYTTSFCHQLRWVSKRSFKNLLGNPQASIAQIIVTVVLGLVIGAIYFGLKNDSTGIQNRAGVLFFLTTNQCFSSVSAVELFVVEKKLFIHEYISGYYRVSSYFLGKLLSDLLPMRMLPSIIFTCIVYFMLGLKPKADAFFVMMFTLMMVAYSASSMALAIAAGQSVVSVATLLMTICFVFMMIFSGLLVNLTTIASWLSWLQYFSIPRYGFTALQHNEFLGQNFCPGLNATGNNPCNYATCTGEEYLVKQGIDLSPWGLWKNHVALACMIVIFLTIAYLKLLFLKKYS

[2] = target: ATP-dependent translocase ABCB1 (Homo sapiens, UniProt P08183); experiment: ABCB1 efflux pump inhibitor potency, dose response, Jurkat-DNR cells, JC-1, flow cytometry (AID 1689); assay type: functional
ATP-dependent translocase ABCB1, sequence (P08183 whole entry): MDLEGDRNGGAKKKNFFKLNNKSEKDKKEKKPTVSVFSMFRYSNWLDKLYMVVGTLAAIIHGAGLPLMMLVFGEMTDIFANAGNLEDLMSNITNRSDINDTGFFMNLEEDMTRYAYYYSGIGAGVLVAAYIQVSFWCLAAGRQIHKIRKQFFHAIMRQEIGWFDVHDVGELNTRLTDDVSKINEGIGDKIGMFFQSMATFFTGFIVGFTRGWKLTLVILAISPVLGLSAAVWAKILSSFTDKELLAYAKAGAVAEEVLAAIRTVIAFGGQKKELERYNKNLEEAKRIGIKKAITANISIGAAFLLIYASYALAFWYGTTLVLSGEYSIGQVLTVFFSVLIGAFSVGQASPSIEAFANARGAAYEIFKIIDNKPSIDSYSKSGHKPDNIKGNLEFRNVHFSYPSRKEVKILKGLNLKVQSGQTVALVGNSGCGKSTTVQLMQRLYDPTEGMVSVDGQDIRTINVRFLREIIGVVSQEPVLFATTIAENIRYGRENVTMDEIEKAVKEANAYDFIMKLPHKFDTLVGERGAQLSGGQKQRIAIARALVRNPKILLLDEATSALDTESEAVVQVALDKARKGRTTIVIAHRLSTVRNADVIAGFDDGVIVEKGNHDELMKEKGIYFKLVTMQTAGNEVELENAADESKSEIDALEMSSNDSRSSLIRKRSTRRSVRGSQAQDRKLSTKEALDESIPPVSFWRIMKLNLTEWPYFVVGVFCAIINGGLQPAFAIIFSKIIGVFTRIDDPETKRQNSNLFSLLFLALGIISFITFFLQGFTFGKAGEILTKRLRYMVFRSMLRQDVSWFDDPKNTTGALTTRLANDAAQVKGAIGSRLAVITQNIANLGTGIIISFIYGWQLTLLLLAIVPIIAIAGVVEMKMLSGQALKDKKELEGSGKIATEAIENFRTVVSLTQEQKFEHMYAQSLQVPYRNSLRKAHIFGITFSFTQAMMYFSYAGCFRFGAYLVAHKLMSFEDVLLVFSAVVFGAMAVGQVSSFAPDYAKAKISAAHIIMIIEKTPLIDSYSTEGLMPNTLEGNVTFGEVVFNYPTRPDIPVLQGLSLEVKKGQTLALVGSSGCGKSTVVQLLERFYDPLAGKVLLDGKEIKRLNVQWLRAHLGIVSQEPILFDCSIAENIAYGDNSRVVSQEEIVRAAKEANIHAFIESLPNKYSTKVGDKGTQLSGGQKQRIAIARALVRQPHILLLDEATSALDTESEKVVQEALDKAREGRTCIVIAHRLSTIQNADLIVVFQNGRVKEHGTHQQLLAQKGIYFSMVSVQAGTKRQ

Beta-lactamase [3] = target: T1, Beta-lactamase (Pseudomonas aeruginosa, UniProt Q79MP6); experiment: […] counterscreen for selective VIM-2 inhibitors: dose response biochemical high throughput screening assay to identify inhibitors of IMP-1 metallo-beta-lactamase.
T1 sequence (Q79MP6 whole entry): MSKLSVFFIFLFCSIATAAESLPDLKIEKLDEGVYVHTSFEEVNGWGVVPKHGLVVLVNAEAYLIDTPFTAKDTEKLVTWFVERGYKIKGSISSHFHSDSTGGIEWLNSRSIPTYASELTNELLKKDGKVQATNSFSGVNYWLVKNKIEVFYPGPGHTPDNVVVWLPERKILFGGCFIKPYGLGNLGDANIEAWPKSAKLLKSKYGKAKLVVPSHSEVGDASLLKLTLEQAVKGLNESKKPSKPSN

Beta-lactamase [4] = target: Beta-lactamase (Salmonella choleraesuis (strain SC-B67), UniProt Q5J463); experiment: Epi-absorbance-based counterscreen for selective VIM-2 inhibitors: dose response biochemical high throughput screening assay to identify inhibitors of TEM-1 serine-beta-lactamase.
Beta-lactamase (Salmonella choleraesuis (strain SC-B67), UniProt Q5J463), sequence (Q5J463 whole entry): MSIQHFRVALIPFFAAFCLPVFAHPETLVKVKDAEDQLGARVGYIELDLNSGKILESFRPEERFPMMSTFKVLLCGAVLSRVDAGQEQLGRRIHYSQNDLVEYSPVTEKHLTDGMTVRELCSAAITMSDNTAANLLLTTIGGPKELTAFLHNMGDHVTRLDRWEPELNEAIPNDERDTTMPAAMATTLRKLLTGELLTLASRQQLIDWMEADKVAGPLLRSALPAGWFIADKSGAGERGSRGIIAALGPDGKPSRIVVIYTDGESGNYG

Beta-lactamase [5] = target: T1, Beta-lactamase; experiment: IMP-1 metallo-beta-lactamase inhibitors, dose response, selectivity assay for VIM-2 inhibitor project, biochemical, epi-absorbance (AID 1920)
[6] = target: T2, Sentrin-specific protease 1 (Homo sapiens, UniProt Q9P0U3); experiment: potency of human SENP1 inhibitors, dose response, biochemical, kinetic FRET (AID 651697); assay type: functional; settings: read-out: IC50_Mean
T2 sequence (Q9P0U3 whole entry, the tested form may be a part): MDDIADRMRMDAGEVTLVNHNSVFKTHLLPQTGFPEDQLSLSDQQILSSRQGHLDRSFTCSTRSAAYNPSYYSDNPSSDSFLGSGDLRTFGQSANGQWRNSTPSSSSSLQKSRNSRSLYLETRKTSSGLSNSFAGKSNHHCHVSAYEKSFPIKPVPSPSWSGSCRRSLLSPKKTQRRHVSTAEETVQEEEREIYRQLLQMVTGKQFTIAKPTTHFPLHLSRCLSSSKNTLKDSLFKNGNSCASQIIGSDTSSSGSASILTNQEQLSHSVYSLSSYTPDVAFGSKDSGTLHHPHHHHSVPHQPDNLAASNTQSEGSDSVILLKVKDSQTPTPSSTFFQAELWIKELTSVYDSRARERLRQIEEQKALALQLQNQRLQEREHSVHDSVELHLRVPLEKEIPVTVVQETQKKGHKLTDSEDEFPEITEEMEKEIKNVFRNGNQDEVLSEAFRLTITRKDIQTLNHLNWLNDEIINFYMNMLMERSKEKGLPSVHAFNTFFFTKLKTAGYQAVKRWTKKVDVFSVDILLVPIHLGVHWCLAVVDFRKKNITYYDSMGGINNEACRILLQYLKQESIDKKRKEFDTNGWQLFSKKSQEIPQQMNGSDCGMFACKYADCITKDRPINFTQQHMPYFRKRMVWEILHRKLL

[7] = target: T2, Sentrin-specific protease 1; experiment: Dose response confirmation of small molecule inhibitors of the catalytic domain of the SUMO protease, SENP1 in a FRET assay.; assay type: functional; settings: read-out: IC50_Mean
[8] = inhibitors of PGC1a acetylation in cells, dose response, cell-based, cherry-picked samples (AID 720514); assay type: functional;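 note: potency may reflect raised or lowered acetylation signal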
Cytochrome P450 1A2 = target: T3, Cytochrome P450 1A2 (Homo sapiens, UniProt P05177);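 note: PubChem cytochrome P450 panel assay, CYP1A2 panel member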
T3 sequence (P05177 whole entry): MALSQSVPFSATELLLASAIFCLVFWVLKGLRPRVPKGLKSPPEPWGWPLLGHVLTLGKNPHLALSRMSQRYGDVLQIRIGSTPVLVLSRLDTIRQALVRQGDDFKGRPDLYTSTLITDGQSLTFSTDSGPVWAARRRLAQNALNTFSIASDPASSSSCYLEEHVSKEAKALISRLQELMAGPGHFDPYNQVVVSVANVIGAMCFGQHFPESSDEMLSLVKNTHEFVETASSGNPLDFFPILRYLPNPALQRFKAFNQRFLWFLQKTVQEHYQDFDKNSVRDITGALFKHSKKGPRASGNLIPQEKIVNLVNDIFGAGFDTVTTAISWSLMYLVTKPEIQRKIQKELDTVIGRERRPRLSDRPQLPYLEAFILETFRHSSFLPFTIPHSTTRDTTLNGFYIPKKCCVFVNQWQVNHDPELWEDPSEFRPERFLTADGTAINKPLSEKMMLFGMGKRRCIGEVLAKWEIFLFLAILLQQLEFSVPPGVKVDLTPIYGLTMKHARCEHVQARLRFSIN

[9] = inhibitors of SNCA 5'UTR-driven reporter translation, confirmation, H4 neuroglioma cells, luminescence (AID 1988); assay type: functional, cell-based
Streptokinase A = target: T4, Streptokinase A (Streptococcus pyogenes serotype M1, UniProt P10520); experiment: S. pyogenes streptokinase expression inhibitors, potency, dose response, plasminogen activation absorbance, OD405 (AID 1914); assay type: functional, Streptococcus pyogenes M1 GAS;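 note: secreted streptokinase activity via plasminogen activation per viability signal from cell pellet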
T4 sequence (P10520 whole entry): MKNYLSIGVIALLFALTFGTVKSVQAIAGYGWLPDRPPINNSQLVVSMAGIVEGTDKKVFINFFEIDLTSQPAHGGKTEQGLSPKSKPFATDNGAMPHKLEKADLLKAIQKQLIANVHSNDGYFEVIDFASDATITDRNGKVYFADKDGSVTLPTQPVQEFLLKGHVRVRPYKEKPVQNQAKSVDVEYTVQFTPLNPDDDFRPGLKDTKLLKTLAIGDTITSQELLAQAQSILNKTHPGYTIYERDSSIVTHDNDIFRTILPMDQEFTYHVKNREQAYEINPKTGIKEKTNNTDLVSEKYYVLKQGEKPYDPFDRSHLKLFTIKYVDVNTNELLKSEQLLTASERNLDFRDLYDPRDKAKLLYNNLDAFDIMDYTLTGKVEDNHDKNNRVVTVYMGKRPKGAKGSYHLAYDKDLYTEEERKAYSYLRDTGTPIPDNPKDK

[10] = tested on: Streptococcus sp. 'group A'; experiment: growth inhibition of control SK(-) GAS strain, dose response, counter-screen for streptokinase expression inhibitor project, luminescence, kanamycin, BacTiterGlo, confirmation (AID 1900); assay type: functional, organism-based
BJ = experiment: cytotoxicity toward Ras-transformed BJeLR fibroblasts, dose response, cell-based, alamar blue fluorescence, cherrypicked samples (AID 2631); assay type: functional; settings: Homo sapiens;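 note: confirmatory dose-response assay in RAS-dependent BJ fibroblasts engineered with TERT, LT and ST, with cytotoxicity read by fluorescence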
Cytochrome P450 2D6 = Cytochrome P450 2D6 (Homo sapiens, UniProt P10635);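 note: CYP2D6 member of a cytochrome P450 panel assay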
Cytochrome P450 2D6, sequence (P10635 whole entry): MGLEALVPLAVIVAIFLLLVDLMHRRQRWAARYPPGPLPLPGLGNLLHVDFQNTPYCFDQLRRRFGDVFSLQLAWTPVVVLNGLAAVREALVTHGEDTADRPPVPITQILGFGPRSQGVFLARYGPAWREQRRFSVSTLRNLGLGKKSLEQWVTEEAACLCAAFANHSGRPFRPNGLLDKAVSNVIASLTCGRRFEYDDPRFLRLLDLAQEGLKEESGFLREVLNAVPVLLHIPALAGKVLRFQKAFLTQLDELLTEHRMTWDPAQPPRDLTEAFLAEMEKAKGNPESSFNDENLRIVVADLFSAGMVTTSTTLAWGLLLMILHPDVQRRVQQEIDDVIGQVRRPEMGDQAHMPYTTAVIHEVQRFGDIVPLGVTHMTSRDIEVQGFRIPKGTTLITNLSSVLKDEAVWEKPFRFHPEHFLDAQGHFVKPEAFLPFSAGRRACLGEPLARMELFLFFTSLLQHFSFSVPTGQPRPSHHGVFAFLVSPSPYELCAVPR

[11] = Luminescence Cell-Based Dose Response HTS to Identify Inhibitors of 5'UTR Stem-Loop Driven Prion Protein mRNA Translation in H4 Neuroglioblastoma Cells. [Related pubchem assays: 1827 (Project Summary), 1813 (Primary HTS)]; assay type: functional
[12] = target: T5, Low molecular weight phosphotyrosine protein phosphatase (Homo sapiens, UniProt P24666); assay type: functional; settings: read-out: IC50_Mean
T5 sequence (P24666 whole entry): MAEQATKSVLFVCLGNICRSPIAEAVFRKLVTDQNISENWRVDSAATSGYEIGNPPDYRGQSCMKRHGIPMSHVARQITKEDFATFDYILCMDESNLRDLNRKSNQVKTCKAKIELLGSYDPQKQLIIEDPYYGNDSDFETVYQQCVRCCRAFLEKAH

[13] = target: T5, Low molecular weight phosphotyrosine protein phosphatase; assay type: functional; settings: read-out: IC50_Mean; remark: listed apart in the source
[14] = inhibitors of firefly luciferase expression or activity, dose response, H4 neuroglioma cells, luminescence (AID 1990); assay type: functional, cell-based
Streptococcus = experiment: Group A Streptococcus viability loss, dose response, counter-screen for streptokinase expression inhibitor project, luminescence, BacTiterGlo (AID 1915); assay type: functional, organism-based;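 note: potency for reduction of bacterial viability or growth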
Cytochrome P450 2C9 = Cytochrome P450 2C9 (Homo sapiens, UniProt P11712)
Cytochrome P450 2C9, sequence (P11712 whole entry): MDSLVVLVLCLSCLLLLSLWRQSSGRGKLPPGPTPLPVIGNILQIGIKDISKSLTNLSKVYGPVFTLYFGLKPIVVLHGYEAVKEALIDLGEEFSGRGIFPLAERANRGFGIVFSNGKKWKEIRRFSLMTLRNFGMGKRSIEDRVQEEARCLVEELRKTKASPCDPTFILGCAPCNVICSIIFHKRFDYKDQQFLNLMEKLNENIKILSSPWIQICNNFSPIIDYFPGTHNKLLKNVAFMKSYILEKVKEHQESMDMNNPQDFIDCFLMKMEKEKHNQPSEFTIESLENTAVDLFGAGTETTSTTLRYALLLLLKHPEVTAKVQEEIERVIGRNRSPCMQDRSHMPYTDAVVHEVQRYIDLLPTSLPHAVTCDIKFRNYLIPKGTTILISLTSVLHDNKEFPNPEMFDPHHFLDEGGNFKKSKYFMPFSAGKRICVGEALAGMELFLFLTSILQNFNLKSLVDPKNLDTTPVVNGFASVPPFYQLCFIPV

[15] = HeLa 2N DNA content increase, dose response, cell-based, IC50 (AID 1117349); assay type: functional
[16] = HeLa 4N DNA content increase, dose response, cell-based, IC50 (AID 1117351); assay type: functional
Cytochrome P450 2C19 = Cytochrome P450 2C19 (Homo sapiens, UniProt P33261); experiment: Cytochrome panel assay with activity outcomes. Panel member name: p450-cyp2c19 Compounds with AC50 equal or less than 10 uM are considered active; assay type: functional
Cytochrome P450 2C19, sequence (P33261 whole entry): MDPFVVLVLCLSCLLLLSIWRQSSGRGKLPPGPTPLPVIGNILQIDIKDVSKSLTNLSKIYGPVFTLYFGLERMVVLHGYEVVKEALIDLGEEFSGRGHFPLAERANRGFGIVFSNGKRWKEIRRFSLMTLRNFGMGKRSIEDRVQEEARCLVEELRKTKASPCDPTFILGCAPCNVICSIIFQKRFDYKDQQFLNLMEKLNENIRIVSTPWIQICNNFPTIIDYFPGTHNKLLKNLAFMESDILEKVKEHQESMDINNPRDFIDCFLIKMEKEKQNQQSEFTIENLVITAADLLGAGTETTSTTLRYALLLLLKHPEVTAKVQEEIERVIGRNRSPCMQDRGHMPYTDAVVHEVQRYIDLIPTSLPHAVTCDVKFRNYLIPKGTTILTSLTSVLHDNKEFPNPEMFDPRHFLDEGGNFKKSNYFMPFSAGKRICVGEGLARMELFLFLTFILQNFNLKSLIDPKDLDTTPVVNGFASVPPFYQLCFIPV

Protein S100-A4, sequence (P26447 whole entry): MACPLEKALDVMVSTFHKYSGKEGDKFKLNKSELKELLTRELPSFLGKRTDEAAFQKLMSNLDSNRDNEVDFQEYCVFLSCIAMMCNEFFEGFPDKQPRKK

SMILES: CC1(C)c2ccccc2N2CC(=O)N(CC(N)=O)C21C (centres undefined)
- AC50 (Protein S100-A4): 1.93 µM (active)

SMILES: COc1ccc(CN2C(=O)c3ccccc3C2=O)cc1C(=O)Nc1ccccc1N1CCOCC1
- EC50 [1]: 0.34 µM (inactive)
- EC50 [2]: 0.428 µM (active)

SMILES: Cc1ccc(S(=O)(=O)n2[nH]c(=O)cc2NC(=O)c2cccs2)cc1
- IC50 (Beta-lactamase [3]): > 59.6 µM (inactive)
- IC50 (Beta-lactamase [4]): > 59.6 µM (inactive)
- IC50 (Beta-lactamase [5]): > 59.6 µM (inactive)

SMILES: N=c1oc2ccc([N+](=O)[O-])cc2cc1C(=O)NCc1ccccc1
- IC50 [6]: 9.4 µM (active)
- IC50 [7]: 2.45 µM (active)

SMILES: CCc1nc(N)nc(N)c1-c1ccc(Cl)cc1 [PYRIMETHAMINE]
- AC50 [8]: 23 µM (active)
- AC50 (Cytochrome P450 1A2): 10 µM (inconclusive)
- EC50 [9]: 0.2 µM (active)
- EC50 (Streptokinase A): > 150 µM (not active)
- EC50 [10]: 3.09 µM (active)
- EC50 (BJ): > 133 µM (inactive)
- AC50 (Cytochrome P450 2D6): 7.94 µM (inconclusive)
- EC50 [11]: 10.5 µM (active)
- IC50 [12]: 32.9 µM (inactive)
- IC50 [13]: 16.5 µM (active)
- EC50 [14]: 3.81 µM (active)
- EC50 (Streptococcus): 51.2 µM (active)
- AC50 (Cytochrome P450 2C9): inactive
- IC50 [15]: > 10 µM (inactive)
- IC50 [16]: > 10 µM (inactive)
- AC50 (Cytochrome P450 2C19): inactive
